# Reference: PubChem BioAssay (NCI)
#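 GI50 = concentration required for 50% inhibition of growth. TGI is the concentration that stops growth completely.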
# How the values were obtained:
# Test in all cases: growth of human tumour cells (NCI), 384-well format
# K-562 leukemia = system: K-562 leukemia
# HCT-116 colon = system: HCT-116 colon
# SK-OV-3 ovarian = system: SK-OV-3 ovarian
# OVCAR-4 ovarian = system: OVCAR-4 ovarian
# SF-295 CNS = system: SF-295 CNS
# SK-MEL-5 melanoma = system: SK-MEL-5 melanoma
# A498 renal = system: A498 renal
# PC-3 prostate = system: PC-3 prostate
# DU-145 prostate = system: DU-145 prostate
# MALME-3M melanoma = system: MALME-3M melanoma
# NCI-H522 lung = system: NCI-H522 lung
# OVCAR-8 ovarian = system: OVCAR-8 ovarian
# NCI/ADR-RES ovarian = system: NCI/ADR-RES ovarian
# COLO 205 colon = system: COLO 205 colon
# 786-0 renal = system: 786-0 renal
# HCC-2998 colon = system: HCC-2998 colon
# NCI-H460 NSCLC = system: NCI-H460 NSCLC
# SK-MEL-28 melanoma = system: SK-MEL-28 melanoma
# TK-10 renal = system: TK-10 renal
# IGROV1 ovarian = system: IGROV1 ovarian
# SF-268 CNS = system: SF-268 CNS
# RXF 393 renal = system: RXF 393 renal
# SR leukemia = system: SR leukemia
# U251 glioblastoma = system: U251 glioblastoma
# HOP-62 NSCLC = system: HOP-62 NSCLC
# LOX IMVI melanoma = system: LOX IMVI melanoma
# SF-539 CNS = system: SF-539 CNS
# A549 NSCLC = system: A549 NSCLC
# HT29 colon = system: HT29 colon
# OVCAR-3 ovarian = system: OVCAR-3 ovarian
# KM12 colon = system: KM12 colon
# MDA-MB-468 breast = system: MDA-MB-468 breast
# NCI-H322M lung = system: NCI-H322M lung
# NCI-H226 lung = system: NCI-H226 lung
# SW-620 colon = system: SW-620 colon
# BT-549 breast = system: BT-549 breast
# SN12C renal = system: SN12C renal
# M14 melanoma = system: M14 melanoma
# EKVX NSCLC = system: EKVX NSCLC
# SNB-75 CNS = system: SNB-75 CNS
# RPMI-8226 leukemia = system: RPMI-8226 leukemia
# HS 578T breast = system: HS 578T breast
# HL-60(TB) leukemia = system: HL-60(TB) leukemia
# HCT-15 colon = system: HCT-15 colon
# MDA-MB-231 breast = system: MDA-MB-231 breast
# CCRF-CEM leukemia = system: CCRF-CEM leukemia
# NCI-H23 lung = system: NCI-H23 lung
# SNB-19 CNS = system: SNB-19 CNS
# MCF7 breast = system: MCF7 breast
# T-47D breast = system: T-47D breast
# HOP-92 NSCLC = system: HOP-92 NSCLC
# UO-31 renal = system: UO-31 renal
# ACHN renal = system: ACHN renal
# UACC-257 melanoma = system: UACC-257 melanoma
# UACC-62 melanoma = system: UACC-62 melanoma
# MDA-MB-435 melanoma = system: MDA-MB-435 melanoma
# CAKI-1 renal = system: CAKI-1 renal
smiles,measurement,setting,value
CC(C)S(=O)(=O)c1ccccc1Nc1nc(Nc2cccc(NC(=O)CN)c2)ncc1Cl,GI50,K-562 leukemia,25 nM
same,TGI,K-562 leukemia,242 nM
same,GI50,HCT-116 colon,< 10 nM
same,TGI,HCT-116 colon,164 nM
same,GI50,SK-OV-3 ovarian,290 nM
same,TGI,SK-OV-3 ovarian,7900 nM
same,GI50,OVCAR-4 ovarian,377 nM
same,TGI,OVCAR-4 ovarian,2070 nM
same,GI50,SF-295 CNS,89.1 nM
same,TGI,SF-295 CNS,11400 nM
same,GI50,SK-MEL-5 melanoma,56.3 nM
same,TGI,SK-MEL-5 melanoma,229 nM
same,GI50,A498 renal,186 nM
same,TGI,A498 renal,11400 nM
same,GI50,PC-3 prostate,237 nM
same,TGI,PC-3 prostate,1490 nM
same,GI50,DU-145 prostate,79.1 nM
same,TGI,DU-145 prostate,1710 nM
same,GI50,MALME-3M melanoma,399 nM
same,TGI,MALME-3M melanoma,1560 nM
same,GI50,NCI-H522 lung,77.1 nM
same,TGI,NCI-H522 lung,622 nM
same,GI50,OVCAR-8 ovarian,87.5 nM
same,TGI,OVCAR-8 ovarian,308 nM
same,GI50,NCI/ADR-RES ovarian,72.7 nM
same,TGI,NCI/ADR-RES ovarian,1140 nM
same,GI50,COLO 205 colon,19.4 nM
same,TGI,COLO 205 colon,128 nM
same,GI50,786-0 renal,182 nM
same,TGI,786-0 renal,2080 nM
same,GI50,HCC-2998 colon,187 nM
same,TGI,HCC-2998 colon,659 nM
same,GI50,NCI-H460 NSCLC,< 10 nM
same,TGI,NCI-H460 NSCLC,335 nM
same,GI50,SK-MEL-28 melanoma,217 nM
same,TGI,SK-MEL-28 melanoma,1290 nM
same,GI50,TK-10 renal,185 nM
same,TGI,TK-10 renal,2560 nM
same,GI50,IGROV1 ovarian,141 nM
same,TGI,IGROV1 ovarian,383 nM
same,GI50,SF-268 CNS,30.7 nM
same,TGI,SF-268 CNS,223 nM
same,GI50,RXF 393 renal,21.4 nM
same,TGI,RXF 393 renal,167 nM
same,GI50,SR leukemia,< 10 nM
same,TGI,SR leukemia,< 10 nM
same,GI50,U251 glioblastoma,193 nM
same,TGI,U251 glioblastoma,1600 nM
same,GI50,HOP-62 NSCLC,39.1 nM
same,TGI,HOP-62 NSCLC,680 nM
same,GI50,LOX IMVI melanoma,25.8 nM
same,TGI,LOX IMVI melanoma,180 nM
same,GI50,SF-539 CNS,47.2 nM
same,TGI,SF-539 CNS,216 nM
same,GI50,A549 NSCLC,106 nM
same,TGI,A549 NSCLC,7360 nM
same,GI50,HT29 colon,184 nM
same,TGI,HT29 colon,1160 nM
same,GI50,OVCAR-3 ovarian,57.1 nM
same,TGI,OVCAR-3 ovarian,290 nM
same,GI50,KM12 colon,19.1 nM
same,TGI,KM12 colon,474 nM
same,GI50,MDA-MB-468 breast,17.4 nM
same,TGI,MDA-MB-468 breast,42 nM
same,GI50,NCI-H322M lung,389 nM
same,TGI,NCI-H322M lung,1730 nM
same,GI50,NCI-H226 lung,49.5 nM
same,TGI,NCI-H226 lung,354 nM
same,GI50,SW-620 colon,29.2 nM
same,TGI,SW-620 colon,436 nM
same,GI50,BT-549 breast,49.5 nM
same,TGI,BT-549 breast,193 nM
same,GI50,SN12C renal,149 nM
same,TGI,SN12C renal,518 nM
same,GI50,M14 melanoma,17.7 nM
same,TGI,M14 melanoma,493 nM
same,GI50,EKVX NSCLC,150 nM
same,TGI,EKVX NSCLC,1710 nM
same,GI50,SNB-75 CNS,23.8 nM
same,TGI,SNB-75 CNS,189 nM
same,GI50,RPMI-8226 leukemia,20.3 nM
same,TGI,RPMI-8226 leukemia,60.7 nM
same,GI50,HS 578T breast,45.5 nM
same,TGI,HS 578T breast,205 nM
same,GI50,HL-60(TB) leukemia,< 10 nM
same,TGI,HL-60(TB) leukemia,< 10 nM
same,GI50,HCT-15 colon,152 nM
same,TGI,HCT-15 colon,1250 nM
same,GI50,MDA-MB-231 breast,93.2 nM
same,TGI,MDA-MB-231 breast,445 nM
same,GI50,CCRF-CEM leukemia,< 10 nM
same,TGI,CCRF-CEM leukemia,< 10 nM
same,GI50,NCI-H23 lung,107 nM
same,TGI,NCI-H23 lung,247 nM
same,GI50,SNB-19 CNS,141 nM
same,TGI,SNB-19 CNS,6120 nM
same,GI50,MCF7 breast,30.1 nM
same,TGI,MCF7 breast,685 nM
same,GI50,T-47D breast,480 nM
same,TGI,T-47D breast,3320 nM
same,GI50,HOP-92 NSCLC,135 nM
same,TGI,HOP-92 NSCLC,463 nM
same,GI50,UO-31 renal,218 nM
same,TGI,UO-31 renal,10700 nM
same,GI50,ACHN renal,200 nM
same,TGI,ACHN renal,14700 nM
same,GI50,UACC-257 melanoma,324 nM
same,TGI,UACC-257 melanoma,1440 nM
same,GI50,UACC-62 melanoma,34.8 nM
same,TGI,UACC-62 melanoma,213 nM
same,GI50,MDA-MB-435 melanoma,168 nM
same,TGI,MDA-MB-435 melanoma,1300 nM
same,GI50,CAKI-1 renal,124 nM
same,TGI,CAKI-1 renal,866 nM
